{
  "source": "patent US20090176866A1",
  "about": "“Complexes having adjuvant activity” (priority 2004, published 2009)",
  "key": {"[1]": {"test_system": "intracellular Leishmania mexicana amastigotes", "assay": "Inhibition of intracellular Leishmania mexicana amastigote growth in human monocyte derived macrophages (infection index)", "format": "cell-based", "conditions": "72 h at 32° C.", "procedure": "(§1) Leishmania mexicana amastigotes were used to infect human monocyte derived macrophages that were maintained in RPMI 1640 (Invitrogen) supplemented with 10% human serum (heat inactivated at 56° C. for 1 hour) and 200 IU/ml penicillin and 200 μg/ml streptomycin. The cells were plated at 10^6 cells/ml into Lab-Tek Chamber Slides (Nunc) and incubated at 37° C./5% CO2 for 3 days. The media was then aspirated from the chamber slides and an equal volume of fresh media added back in which the amastigote concentration had been adjusted to give a parasite:cell infection ratio of 5:1. The cells were then incubated at 32° C. for 20 h to enable infection of the macrophages to become established. Media was then aspirated from the chamber slides and replaced with doubling dilutions of the test compound. The cells were then incubated at 32° C. for 72 h. After washing with PBS, the chambers were detached, the slides allowed to dry and then fixed in methanol. Each slide was then stained with Giemsa and examined microscopically. A total of 250 cells were counted to determine the number of infected and uninfected cells.\n(§2) The infection index was calculated as the average number of parasites/cell multiplied by the percentage of infected cells."}, "[2]": {"test_system": "Leishmania donovani promastigotes", "assay": "Viability of Leishmania donovani promastigotes (MTT)", "format": "cell-based", "conditions": "24 h + 24 h MTT at 26° C.", "procedure": "(§3) Leishmania donovania promastigotes were used for these experiments. They were maintained in Schneider's Growth Media 199 supplemented with 15% fetal calf serum (heat inactivated at 56° C. for 1 hour) and gentamicin (1 mg/100 ml). The parasite concentration was adjusted to 2×10^6 parasites/ml. Doubling dilutions of the test compound were prepared at twice the desired final concentration in growth media. An equal volume of the drug and the parasite suspension were then mixed in a 96 well plate and incubated for 24 h at 26° C. At this time, MTT (5 mg/ml) was added and the plate incubated for a further 24 h at 26° C. The plate was then centrifuged (2000 g, 5 min), the supernatant discarded and the pellet resuspended in 100 μl DMSO. Absorbance was measured at 570 nm using a spectrophotometer. The results were expressed as the percentage viability of the promastigotes with 100% viability being determined using the OD of the untreated, replicating promastigotes in the control wells."}, "human red blood cells": {"test_system": "human red blood cells", "assay": "Red blood cell lysis", "format": "cell-based", "conditions": "24 h incubation; 3 donors", "method": "A 2% v/v solution of human red blood cells was prepared in RPMI 1640. […] A 1% solution of Triton X-100 was used as a positive reference for 100% cell lysis. Dextran and poly-L lysine were used as negative and positive controls respectively. An equal volume of the sample and red blood cells were aliquoted into a 96 well microbtre plate and incubated at 37° C. After 1 h and after 24 h, each sample was centrifuged (2,000 g, 10 min) and the supernatant added to a 96 well microtitre plate. The absorbance was measured at 490 nm using a spectrophotometer. The degree of lysis was expressed as a percentage of the 100% lysis caused by Triton X-100.\nLyophilised amphotericin B-PMMA-Na was stored at 4° C. under argon for 4 months. It was also solubilised in 5% dextrose at a concentration of 1 mg/ml and stored at 4° C. for 7 months under argon.\nFreshly prepared, clinical grade amphotericin B was used as a reference for the comparison. Incubations were undertaken for 1 h and 6 h."}, "[3]": {"test_system": "intracellular Leishmania donovani amastigotes", "assay": "Inhibition of intracellular Leishmania donovani amastigote growth in human monocyte derived macrophages (infection index)", "format": "cell-based", "conditions": "72 h at 32° C.", "procedure": "as §1, with “donovani” for “mexicana”\nas §2"}, "[4]": {"test_system": "Leishmania donovani amastigotes", "assay": "Mouse model of visceral leishmaniasis (liver parasite burden)", "format": "in vivo, BALB/c mice", "procedure": "Leishmania donovani strain (MHOM/ET/67/L82) amastigotes were collected from the spleens of heavily infected donor Syrian Hamsters-Mesocritetus auratus. An inoculum containing 7.5-10×10^7 amastigotes/mL was prepared. Female BALB/c mice (20 g) that were specified pathogen free were infected intravenously with 200 μL (equivalent to 1.5-2×10^7 amastigotes) on day 0. The end point of infection was evaluated by microscopic reading on day 14 to check for the level of infection in one mouse, and on day 21 post-infection of Giemsa stained liver impressions to determine the total parasite burden.\nThe following compounds were administered intravenously according to the following regimens:—\nThere were 5 animals in each group. […] All drug preparations were filtered using a […] syringe filter. The intravenous volume of injection was 200 μL per injection.\nGroups of mice were weighed before and after treatment as a measure of toxicity and the percentage weight change noted. On day 21 after infection (which was 3 days after the completion of treatment), the parasite burden was determined microscopically from methanol fixed liver impression slides stained with 10% Giemsa. The number of amastigotes/500 liver cells were counted microscopically and the results expressed as a percentage of the untreated control."}, "[5]": {"test_system": "Leishmania mexicana promastigotes", "assay": "Viability of Leishmania mexicana promastigotes (MTT)", "format": "cell-based", "conditions": "24 h + 24 h MTT at 26° C.", "procedure": "as §3, with “mexicana promastgotes” for “donovania promastigotes”, “Drosophila growth medium (Invitrogen)” for “Growth Media 199”"}, "visceral leishmaniasis": {"test_system": "visceral leishmaniasis", "conditions": "intravenous, daily or every other day, 15-20 infusions at 0.75-1 mg/kg/day; cited from earlier work"}},
  "data": [
    {"smiles": "C[C@@H]1[C@H](O)[C@@H](C)/C=C/C=C/C=C/C=C/C=C/C=C/C=C/[C@H](O[C@@H]2O[C@H](C)[C@@H](O)[C@H](N)[C@@H]2O)C[C@@H]2O[C@](O)(C[C@@H](O)C[C@@H](O)[C@H](O)CC[C@@H](O)C[C@@H](O)CC(=O)O[C@H]1C)C[C@H](O)[C@H]2C(=O)O", "note": "[clinical grade amphotericin B, amphotericin B]", "values": [
      {"measurement": "50% inhibition of intracellular amastigote growth", "setting": "[1]", "value": 0.14, "unit": "µg/mL"},
      {"measurement": "90% inhibition of intracellular amastigote growth", "setting": "[1]", "value": 0.95, "unit": "µg/mL"},
      {"measurement": "90% lethal dose (LD90)", "setting": "[2]", "value": 1.91, "unit": "µg/mL"},
      {"measurement": "red cell lysis (toxicity)", "setting": "human red blood cells", "value": 100, "unit": "%"},
      {"measurement": "50% inhibition of intracellular amastigote growth", "setting": "[3]", "value": 0.54, "unit": "µg/mL"},
      {"measurement": "90% inhibition of intracellular amastigote growth", "setting": "[3]", "value": 2.31, "unit": "µg/mL"},
      {"measurement": "killing activity of Leishmania donovani amastigotes compared to the controls", "setting": "[4]; 1 mg/kg i.v. days 14, 16 and 18, liver, day 21, P<0.0001", "value": "significant killing activity"},
      {"measurement": "anti-leishmanial activities compared with each other", "setting": "[4]; clinical grade amphotericin B, Ambisome, amphotericin B-PMAA-Na (2 mg/kg), P<0.05 as printed", "value": "not significantly different from each other"},
      {"measurement": "90% lethal dose (LD90)", "setting": "[5]", "value": 1.49, "unit": "µg/mL"},
      {"measurement": "Long-term cure rates", "setting": "visceral leishmaniasis", "value": 97, "unit": "%"}
    ]}
  ]
}
